# Measurements published in US20230348453A1, “HALOGENATED-HETEROARYL AND OTHER HETEROCYCLIC KINASE INHIBITORS, AND USES THEREOF” (iOmx Therapeutics AG, priority 2020, published 2023).
# Key:
# [1] = Screening PK in mice after 30 mg/kg po; details: for concentration at 6 h: mice, 30 mg/kg po
# [2] = MDCK wild type permeability/efflux; details: dog
# [3] = tested on: NFKB activity in PANC-1 cells; test: TNF-induced NFKB activity (NFKB-dependent luciferase reporter); details: 10 ng/ml rHuTNF, PANC-1 reporter cells
# [4] = Mouse hepatocyte stability; type: in vitro ADME; details: hepatocytes
# [5] = Murine plasma protein binding
# [6] = target: HCK (Homo sapiens (Human), UniProt P08631); type: biochemical; details: Kinase Profiler
# [7] = target: SIK3 (Homo sapiens (Human), UniProt Q9Y2K2); details: fold of the value of compound C7 (C7 = 1×)
# [8] = tested on: MC38 colorectal carcinoma tumours; test: MC38 syngeneic mouse tumour model (Example 8.1); details: MC38; for Body weight increase (%) / Non-treatment related death / Tumour growth inhibition (%): BID po
# [9] = in vivo; details: male, CD1, mouse, po, 30 mg/kg
# [10] = tested on: HDAC4 phosphorylation in PANC-1 cells; test: HDAC4 phosphorylation (Meso Scale Discovery assay); details: 10 ng/mL rHuTNF, 3 h
# [11] = target: SIK2 (Homo sapiens (Human), UniProt Q9H0K1); test: SIK2 kinase inhibition (IC50); details: read-out: Kinase: IC50 (nM) SIK2
# [12] = tested on: NFKB activity in MC38 cells; test: TNF-induced NFKB activity (NFKB-dependent luciferase reporter); details: 10 ng/ml rMuTNF
# [13] = Human hepatocyte stability; type: in vitro ADME
# [14] = tested on: MC38 colorectal carcinoma tumours; test: MC38 syngeneic mouse model, E9 and anti-PD-1 alone and in combination (Example 10); type: in vivo, C57Bl/6N mice; details: E9 25 mg/Kg twice daily and/or anti-PD-1 mAb
# [15] = total plasma concentration at 30 mg/kg p.o dose, fold of C7 (C7 = 1×)
smiles,measurement,setting,value
"Cc1nc(Nc2ncc(C(=O)Nc3c(CF)csc3Cl)s2)cc(N2CCN(C)CC2)n1 [Compound E9, N-(2-chloro-4-(fluoromethyl)thiophen-3-yl)-2-((2-methyl-6-(4-methylpiperazin-1-yl)pyrimidin-4-yl)amino)thiazole-5-carboxamide]",fold improvement of free serum concentration over C7,"[1]; mouse, in vivo",2 fold
same,fold improvement of total serum concentration over C7,"[1]; mouse, in vivo",4.5 fold
same,Cmax at 2 h,"[1]; mouse, plasma, po, 30 mg/kg",426 ng/mL
same,concentration at 6 h,"[1]; mouse, plasma, po, 30 mg/kg, Free plasma concentration after 6 h (nM)",7.7 nM
same,concentration at 6 h,"[1]; mouse, plasma, po, 30 mg/kg, Plasma concentration after 6 h (nM)",309 nM
same,"AUC0-last (nM*h), relative to C7",[1]; [15],8.2×
same,"C max (ng/ml), relative to C7",[1]; [15],5.6×
same,"MRT0-last (h), relative to C7",[1]; [15],1.2×
same,"t1/2 (h), relative to C7",[1]; [15],2×
same,Papp,[2],10 ×10⁻⁶ cm/s
same,efflux ratio,[2],1
same,Inhibition of NFKB activity (PANC-1),[3],++
same,half-life,[4],1.08 h
same,microsomal CLint,"[4]; read-out: Mouse hepatocyte stability, Intrinsic clearance",21 µL/min/mg
same,"Murine plasma protein binding, Percentage unbound (%)",[5]; Table 5.1A,1%
same,recovery at 4 h,"[5]; mouse, plasma",88%
same,HCK residual activity,[6],less than 1%
same,"SIK3 IC50 (nM), relative to C7",[7],0.3×
same,Body weight increase (%),[8]; 25 mg/Kg,16.8%
same,Non-treatment related death,[8]; 25 mg/Kg,2/16
same,Tumour growth inhibition (%),[8]; 25 mg/Kg,74%
same,average TGI,[8]; 25 mg/kg BID,72%
same,Body weight increase (%),[8]; 50 mg/Kg,18.7%
same,Non-treatment related death,[8]; 50 mg/Kg,3/16
same,Tumour growth inhibition (%),[8]; 50 mg/Kg,69%
same,AUC(0-inf),[9],9.63 µM·h
same,AUC(0-t),[9],9.58 µM·h
same,Cmax,[9],2690 ng/mL
same,MRT last,[9],3.38 h
same,Tmax,[9],0.25 h
same,half-life,[9],2.76 h
same,Inhibition of HDAC4 phosphorylation,[10],++
same,IC50,[11],< 10 nM
same,Inhibition of NFKB activity (MC38),[12],++
same,"Human hepatocyte stability, Half-life",[13],0.4 h
same,half-life,"[13]; human, hepatocytes, read-out: Human hepatocyte stability, Half-life",0.35 to 0.5 h
same,microsomal CLint,"[13]; human, hepatocytes, read-out: Human hepatocyte stability, Intrinsic clearance",58 µL/min/mg
same,TGI,[14],73%
